The record followed here is patent US20040106120A1, “Diagnosis and treatment of disease” (priority 2000, published 2004).

For experiment [1], the system named is reconstituted human epidermis cultures (skin equivalents). Kind of experiment: Treatment of skin equivalents (reconstituted human epidermis cultures) for 16 hours, light microscopy histology. The class given is cell-based. The settings on record: 16 hours at 37° C; for effect of peptide on stratum corneum of skin equivalent: 6 μM peptide, 200 μl applied to surface, versus buffered salt solution; for effect of cytokine on stratum corneum thickness of skin equivalent: 2.5 ng/ml added to medium. On the procedure:
1 ml of room temperature SkinEthic maintenance medium is added to each well of 6-well tissue culture plates (one well per skin equivalent). The cell culture inserts containing the skin equivalents are removed from the agarose transportation medium using sterile forceps and placed in the wells ensuring no air bubbles are formed. The well plates are placed in a humid incubator at 37° C., 5% CO2. After 24 hours the medium is changed and the appropriate treatment is applied. 200 μl of each treatment is applied to the surface of the skin equivalent as follows: Control—buffered salt solution; 10% foetal bovine serum; 0.25% chymotrypsin; 6 μM Peptide 643.
All reagents are made up to the correct concentration in a buffered salt solution comprising the following in 1 litre: 0.142 g Na2HPO4, 1.802 g Glucose, 7.149 g HEPES, 0.224 g KCl, 7.597 g NaCl, pH 7.4.
Treatments are allowed to act on the cultures for 16 hours at 37° C.
The skin equivalents and membranes are cut from the cell culture insert using a scalpel. The equivalents are fixed in 10% formalin (3.7% formaldehyde) in phosphate buffered saline for 24 hours at 4° C. Samples are washed in 3 changes of PBS. The PBS is the decanted from the samples which are dehydrated in 3×5 minute changes of 70% ethanol, 2×5 minute changes of 95% ethanol and 2×5 minute changes of 100% ethanol. The samples are then placed in xylene for 5 minutes and then molten paraffin for infiltration for 5 minutes. The samples are occasionally agitated during each of the steps. The equivalents are then oriented in more molten paraffin in an embedding mould and allowed to set for 1 hour.
5 μm sections are taken of each block and collected on glass microscope slides. The slides are dried at 50° C. overnight.
The slides are racked and placed in xylene for 2×5 minute washes to remove any unwanted paraffin. The slides are then rehydrated by placing them for 5 minutes in each of the following; 2×100% ethanol, 1×95% ethanol, 1×70% ethanol. The slides are then rinsed in running tap water for 1 minute. Staining is with Gill's haematoxylin (2 minutes) followed by rinsing in water for 2 minutes then placing in 1% eosin for 5 minutes and rinsing briefly in water. The samples are dehydrated once more by placing in 70% ethanol for 30 seconds, 95% ethanol for 30 seconds and 2 changes of 100% ethanol for 1 and 2 minutes each. The slides are then placed in xylene for 1 minute before mounting coverslips with DPX mountant for microscopy.
Slides are examined under light microscope at using the 40×objective lens and typical images are captured onto the PC using Synoptics Acquis Pro.
1 ml of room temperature SkinEthic maintenance medium is added to each well of 6-well tissue culture plates (one well per skin equivalent). The cell culture inserts containing the skin equivalents are removed from the agarose transportation medium using sterile forceps and placed in the wells ensuring no air bubbles are formed. The well plates are placed in a humid incubator at 37° C., 5% CO2. After 24 hours the medium is changed and the appropriate treatment is applied.
200 μl of the following treatments are applied to the surface of the skin equivalents: (1) Control—buffered salt solution; (2) 6 μM Peptide 641; (3) 6 μM Peptide 642; (4) 6 μM Peptide643; (5) 6 μM Peptide 651; (6) 6 μM Peptide 653.
The following treatments are diluted from stock solutions (10 μg/ml TNF-α, 1 μg/m IL-1β) directly into 1 ml of medium and added to the well during the medium change: (7) 2.5 ng/ml TNF-α; and (8) 75 ng/ml IL-1β.

Another experiment deals with chymotrypsin (Bos taurus, UniProt P00766). In words: Chymotrypsin proteolysis of synthetic corneodesmosin peptides. The experiment is classed as biochemical. The settings on record: peptide exposed to chymotrypsin in appropriate buffer. From the text: Peptides corresponding to fragments of corneodesmosin, and comprising amino acids at and around position 40 (L20815; corresponding to position 180 on the nucleotide sequence) are synthesised. The peptides are exposed to chymotrypsin in appropriate buffer, and the digestion products identified. Chymotrypsin is known to cleave the peptide bond C-terminal to a F, Y or W residue, but not C-terminal to an L residue.
Peptides P1 and P2 (size 38 amino acids, comprising L and F at position 40 of L20815 respectively) are exposed to chymotrypsin. Peptide P1 has the sequence PTRITSPNDPCL40[…], while peptide P2 has the sequence PTRITSPNDPCF40[…].
The above results are confirmed by using the ExPASy Molecular Biology Server at http://www.expasy.ch/.

Experiment [2] concerns psoriatic skin biopsy (stratum corneum). In words: Treatment of skin biopsies from psoriatic patients with protease, transmission electron microscopy. On the set-up: species or system human. The settings on record: 0.25% chymotrypsin, 16 hours at 37° C, versus untreated half. On the procedure: All biopsies are carried out by a dermatologist in an operating theatre. Aseptic technique is employed and sterile/disposable equipment used throughout the procedure. Two skin biopsies are taken from the lower back of each patient, one from an area of active plaque psoriasis and the other from an uninvolved site at least 10 cm away. The lower back is cleaned with antiseptic solution and local anaesthetic introduced to the intended areas of biopsy. Ellipses approximately 1.5 cm by 0.5 cm are excised from both lesional and non-lesional skin and placed in a container with PBS solution. The wounds are sutured using catgut for deep sutures and ethilon for superficial sutures (employing two or three stitches per wound). After the operation the wounds are covered with a sterile dressing and the patient observed for 30 minutes before being allowed home. Sutures are removed two weeks later.
The following procedures are performed under aseptic conditions: The psoriatic skin biopsy is cut into 2 pieces using a sterile scalpel. One half of the biopsy is placed in 2 ml of 0.25% chymotrypsin (diluted from a 10×stock in skin maintenance medium, Skinethic) in one well of a 24-well plate. The other half is incubated in 2 ml of maintenance medium with no additions. […]
Ultrathin sections (70-90 nm) are cut on an ultramicrotome. […] Electron micrographs are recorded on Agfa Scientia 23D56 EM film.

Regarding “NH2-leu-asp-pro-val-asp-thr-pro-asn-pro-thr-arg-arg-lys-pro-gly-COOH [Peptide 653]”, the “effect of peptide on stratum corneum of skin equivalent” value (“effect of peptide” for short) in experiment [1] is given as “increase in the thickness of the stratum corneum”.

Take TNF-α: the “effect of cytokine on stratum corneum thickness of skin equivalent” value in experiment [1] was “increase in the thickness of the stratum corneum”.

Consider “NH2-leu-asp-pro-val-asp-COOH [Peptide 651]”, for which the “effect of peptide” value in experiment [1] is reported as “increase in the thickness of the stratum corneum”.

On to “NH2-ser-gly-lys-arg-asp-lys-ser-glu-glu-val-gln-cys-COOH (H-SGKRDKSEEVQC-OH) [Peptide 642, fragment of Desmoplakin (…)]”, for which the “effect of peptide” value in experiment [1] is reported as “more permeable”.

Regarding “IL-1β: cytokine purchased from Calbiochem”, the “effect of cytokine on stratum corneum thickness of skin equivalent” value in experiment [1] is reported as “increase in the thickness of the stratum corneum”.

For the substance “PTRITSPNDPCF40TGKGDSSGFSGSSSSGSSISSAR [peptide P2]”, the “products of proteolysis by chymotrypsin” value at chymotrypsin is “three small peptides”.

As to “NH2-met-glu-asn-ser-leu-gly-pro-phe-pro-gln-cys-COOH (H-MENSLGPFPQC-OH) [Peptide 641, fragment of Desmocollin 1 (…)]”, the “effect of peptide” value in experiment [1] is reported as “more permeable”.

With chymotrypsin, in experiment [1] (applied to surface, chymotrypsin 0.25%), the “effect of protease on stratum corneum barrier of skin equivalent” value is “degrades the barrier of the stratum corneum”. In experiment [2], the “corneodesmosomes visible in stratum corneum” value is given as “far fewer corneodesmosomes are visible” and the “stratum corneum morphology (corneocyte layers)” value is “splitting of the layers of corneocytes (acantholysis)”.

As to “PTRITSPNDPCL40TGKGDSSGFSGSSSSGSSISSAR [peptide P1]”, the “products of proteolysis by chymotrypsin” value at chymotrypsin is recorded as “two products of proteolysis”.

“NH2-cys-val-ser-pro-val-lys-ala-COOH (H-CVSPVKA-OH) [Peptide 643, fragment of SLPI (CVSPVKA)]”: in experiment [1], the “effect of peptide” value was “thickening of the stratum corneum”.
